Measurements published in patent US12509454B2, “Thiadiazolyl derivatives” (IDEAYA Biosciences, Inc., priority 2019, dated 2025).

Target: Pol theta (1-899) (Homo sapiens (Human), UniProt O75417)
Assay: Pol theta ATPase activity, NADH oxidation-coupled enzymatic assay
Assay type: biochemical
Details: Pol theta (1-899) 10 nM, ATP, dT50 ssDNA, absorbance 340 nm, 10-point dilution series; read-out: ATPase NADH coupling:Standard Screening:hPolQ IC50
Method: The ability of the compounds of Formula (I) to inhibit ATPase activity of Pol theta (1-899) was determined using the assay described below.
Pol Theta ATPase activity was determined by measuring the rate of ATP turn over in a NADH oxidation-coupled enzymatic assay. 10-point dilution series of compounds were used in a 384 well format for the inhibition assays. Pol theta (1-899) (10 nM) in assay buffer (20 mM Tris HCl (pH 7.80), 80 mM KCl, 10 mM MgCl2, 1 mM DTT, 0.01% BSA, 0.01% Tween, 5% glycerol) was transferred to the test wells (20 μL), except the low control wells (20 μL of assay buffer was added to the low control wells). The plate was then incubated at room temperature for 15 min. An equal volume (20 μL) of 100 μM ATP, 300 nM dT50 (single-stranded DNA (ssDNA) containing 50 thymine bases), 300 μM NADH, 6 mM PEP, 10 U/mL lactate dehydrogenase and 20 U/mL pyruvate kinase in assay buffer was added to all the test wells. The plate was then centrifuged at 1000 rpm for 1 min. The reaction was monitored for 30 min by measuring absorbance (λ=340 nm) in a Tecan Spark multimode plate reader every minute. The high control (DMSO with enzyme) with low absorbance intensity represents no inhibition of ATPase reaction while the low control (DMSO with buffer) with high absorbance intensity represents full inhibition of ATPase activity. Slope of the reaction progress curves were used to calculate the rate of ATP hydrolysis. The rates were used to determine the percent inhibition using a four-parameter inhibition model to generate IC50, Hill slope and max inhibition.

Pol theta (1-899), sequence (O75417 1-899): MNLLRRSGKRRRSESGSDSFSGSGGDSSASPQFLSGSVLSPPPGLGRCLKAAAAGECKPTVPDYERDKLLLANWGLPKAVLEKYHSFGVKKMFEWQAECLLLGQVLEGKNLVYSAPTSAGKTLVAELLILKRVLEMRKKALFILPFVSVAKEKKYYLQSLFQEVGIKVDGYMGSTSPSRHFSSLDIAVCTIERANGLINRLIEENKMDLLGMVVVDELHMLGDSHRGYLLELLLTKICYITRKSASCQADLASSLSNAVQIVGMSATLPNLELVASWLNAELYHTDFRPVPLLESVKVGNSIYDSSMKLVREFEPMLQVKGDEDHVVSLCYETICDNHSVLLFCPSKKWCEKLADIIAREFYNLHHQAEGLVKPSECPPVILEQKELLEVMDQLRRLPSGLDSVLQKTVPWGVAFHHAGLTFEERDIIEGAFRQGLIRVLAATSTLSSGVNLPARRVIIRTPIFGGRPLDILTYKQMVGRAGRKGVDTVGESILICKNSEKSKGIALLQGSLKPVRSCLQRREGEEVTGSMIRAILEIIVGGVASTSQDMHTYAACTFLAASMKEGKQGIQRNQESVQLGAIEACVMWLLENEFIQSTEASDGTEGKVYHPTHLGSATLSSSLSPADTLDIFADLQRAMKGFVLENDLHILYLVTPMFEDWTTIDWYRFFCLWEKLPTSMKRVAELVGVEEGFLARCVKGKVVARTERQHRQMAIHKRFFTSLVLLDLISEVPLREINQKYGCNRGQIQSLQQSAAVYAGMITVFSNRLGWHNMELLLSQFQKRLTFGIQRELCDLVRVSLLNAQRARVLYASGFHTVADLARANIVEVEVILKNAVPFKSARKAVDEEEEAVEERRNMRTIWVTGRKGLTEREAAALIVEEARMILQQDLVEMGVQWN

SMILES	IC50
N#Cc1ccc(C(=O)Nc2nnc(OCc3ccc(Br)cc3)s2)c(N2CCNC(=O)C2)n1 [Example 88, N-(5-((4-bromobenzyl)oxy)-1,3,4-thiadiazol-2-yl)-6-cyano-2-(3-oxopiperazin-1-yl)nicotinamide]	≤ 200 nM
CC(=O)Nc1cc(N2CCOCC2)c(C(=O)Nc2nnc(OCc3ccc(Cl)cc3)s2)cn1 [Example 78, 6-acetamido-N-(5-((4-chlorobenzyl)oxy)-1,3,4-thiadiazol-2-yl)-4-morpholinonicotinamide]	1000 to 10000 nM
COc1c(C#N)cccc1-c1cnccc1C(=O)Nc1nnc(OCc2ccc(Cl)cc2)s1 [Example 159, N-(5-((4-chlorobenzyl)oxy)-1,3,4-thiadiazol-2-yl)-3-(3-cyano-2-methoxyphenyl)isonicotinamide]	≤ 200 nM
O=C(Nc1nnc(OCc2ccc(Br)cc2)s1)c1cccnc1N1CCOCC1 [Example 40, N-(5-((4-bromobenzyl)oxy)-1,3,4-thiadiazol-2-yl)-2-morpholinonicotinamide]	200 to 500 nM
COc1ccccc1-c1cc([C@@H](C)O)ncc1C(=O)Nc1nnc(OCc2ccc(Cl)cc2)s1 (racemic) [Example 167, N-[5-[(4-chlorophenyl)methoxy]-1,3,4-thiadiazol-2-yl]-6-(1-hydroxyethyl)-4-(2-methoxyphenyl)pyridine-3-carboxamide]	200 to 500 nM
O=C(Nc1nnc(OCc2ccc(Cl)cc2)s1)c1ccncc1-c1ccccc1OC1CC(O)C1 (centres unmarked) [Example 165, N-(5-((4-chlorobenzyl)oxy)-1,3,4-thiadiazol-2-yl)-3-(2-(3-hydroxycyclobutoxy)phenyl)isonicotinamide]	≤ 200 nM
COc1cccc(F)c1-c1cc(C#N)ncc1C(=O)Nc1nnc(OCc2ccc(Cl)cn2)s1 [Example 186, N-(5-((5-chloropyridin-2-yl)methoxy)-1,3,4-thiadiazol-2-yl)-6-cyano-4-(2-fluoro-6-methoxyphenyl)nicotinamide]	≤ 200 nM
CC1CN(c2ncccc2C(=O)Nc2nnc(OCc3ccc(Cl)cc3)s2)CCO1 (racemic) [Example 7, (R)—N-(5-((4-chlorobenzyl)oxy)-1,3,4-thiadiazol-2-yl)-2-(2-methylmorpholino)nicotinamide and (S)—N-(5-((4-chlorobenzyl)oxy)-1,3,4-thiadiazol-2-yl)-2-(2-methylmorpholino)nicotinamide]	200 to 500 nM
COc1cccc(F)c1-c1cc(C)ncc1C(=O)Nc1nnc(OCc2ccc(Cl)cc2)s1 [Example 183, N-(5-((4-chlorobenzyl)oxy)-1,3,4-thiadiazol-2-yl)-4-(2-fluoro-6-methoxyphenyl)-6-methylnicotinamide]	≤ 200 nM
COc1ccccc1-c1cc(C)ncc1C(=O)Nc1nnc(OCc2cccc(F)n2)s1 [Example 211, N-[5-[(6-fluoropyridin-2-yl)methoxy]-1,3,4-thiadiazol-2-yl]-4-(2-methoxyphenyl)-6-methylpyridine-3-carboxamide]	≤ 200 nM
O=C(Nc1nnc(OCc2ccc(Cl)cc2)s1)c1cnccc1-c1ccccc1OC(F)(F)F [Example 130, N-(5-((4-chlorobenzyl)oxy)-1,3,4-thiadiazol-2-yl)-4-(2-(trifluoromethoxy)phenyl)nicotinamide]	≤ 200 nM
Cc1cc(-c2c(F)cccc2OC(F)F)c(C(=O)Nc2nnc(OCc3ccc(Cl)cn3)s2)cn1 [Example 190, N-(5-((5-chloropyridin-2-yl)methoxy)-1,3,4-thiadiazol-2-yl)-4-(2-(difluoromethoxy)-6-fluorophenyl)-6-methylnicotinamide]	≤ 200 nM
N#Cc1ccc(C(=O)Nc2nnc(OCc3ccc(Cl)cc3)s2)c(N2CCOCC2)c1 [Example 72, N-(5-((4-chlorobenzyl)oxy)-1,3,4-thiadiazol-2-yl)-4-cyano-2-morpholinobenzamide]	200 to 500 nM
O=C(Nc1nnc(OCc2ccc(Cl)nc2)s1)c1cccnc1N1CCOCC1 [Example 8, N-(5-((6-chloropyridin-3-yl)methoxy)-1,3,4-thiadiazol-2-yl)-2-morpholinonicotinamide]	1000 to 10000 nM
COc1ccccc1-c1cc(C)ncc1C(=O)Nc1nnc(OCc2cnc(Cl)cn2)s1 [Example 212, N-[5-[(5-chloropyrazin-2-yl)methoxy]-1,3,4-thiadiazol-2-yl]-4-(2-methoxyphenyl)-6-methylpyridine-3-carboxamide]	≤ 200 nM
COc1ccccc1-c1cc(C)ncc1C(=O)Nc1nnc(OCc2ccc(Cl)c3[nH]ncc23)s1 [Example 213, N-[5-[(7-chloro-1H-indazol-4-yl)methoxy]-1,3,4-thiadiazol-2-yl]-4-(2-methoxyphenyl)-6-methylpyridine-3-carboxamide]	≤ 200 nM
Cc1cc(-c2ccccc2CO)c(C(=O)Nc2nnc(OCc3ccc(Cl)cn3)s2)cn1 [Example 203, N-[5-[(5-chloropyridin-2-yl)methoxy]-1,3,4-thiadiazol-2-yl]-4-[2-(hydroxymethyl)phenyl]-6-methylpyridine-3-carboxamide]	≤ 200 nM
C[C@H]1COC[C@H](C)N1c1cnccc1C(=O)Nc1nnc(OCc2ccc(Cl)cc2)s1 [Example 110, N-(5-((4-chlorobenzyl)oxy)-1,3,4-thiadiazol-2-yl)-3-((3S,5S)-3,5-dimethylmorpholino)isonicotinamide]	≤ 200 nM
COc1ccc(C#N)cc1-c1cc(C)ncc1C(=O)Nc1nnc(OCc2ccc(Cl)cc2)s1 [Example 116, N-[5-[(4-chlorophenyl)methoxy]-1,3,4-thiadiazol-2-yl]-4-(5-cyano-2-methoxyphenyl)-6-methylpyridine-3-carboxamide]	≤ 200 nM
O=C(Nc1nnc(OCc2ccc(C3COC3)cc2)s1)c1cccnc1N1CCOCC1 [Example 56, 2-morpholino-N-(5-((4-(oxetan-3-yl)benzyl)oxy)-1,3,4-thiadiazol-2-yl)nicotinamide]	1000 to 10000 nM
O=C(Nc1nnc(OCc2ccc(Cl)cc2)s1)c1ccncc1-c1cccc2[nH]ncc12 [Example 119, N-(5-((4-chlorobenzyl)oxy)-1,3,4-thiadiazol-2-yl)-3-(1H-indazol-4-yl)isonicotinamide]	≤ 200 nM
COc1ccccc1-c1cc(CC#N)ncc1C(=O)Nc1nnc(OCc2ccc(Cl)cc2)s1 [Example 105, N-(5-((4-chlorobenzyl)oxy)-1,3,4-thiadiazol-2-yl)-6-(cyanomethyl)-4-(2-methoxyphenyl)nicotinamide]	≤ 200 nM
Cc1cc(-c2ccccc2OC(F)F)c(C(=O)Nc2nnc(OCc3ccc(Cl)cn3)s2)cn1 [Example 115, N-[5-[(5-chloropyridin-2-yl)methoxy]-1,3,4-thiadiazol-2-yl]-4-[2-(difluoromethoxy)phenyl]-6-methylpyridine-3-carboxamide]	≤ 200 nM
C[C@H]1COC[C@H](C)N1c1cnccc1C(=O)Nc1nnc(OCc2ccc(Cl)cn2)s1 [Example 187, N-(5-((5-chloropyridin-2-yl)methoxy)-1,3,4-thiadiazol-2-yl)-3-((3S,5S)-3,5-dimethylmorpholino)isonicotinamide]	≤ 200 nM
COc1cc(N2CCOCC2)c(C(=O)Nc2nnc(OCc3ccc(Cl)cc3)s2)cn1 [Example 75, N-(5-((4-chlorobenzyl)oxy)-1,3,4-thiadiazol-2-yl)-6-methoxy-4-morpholino-nicotinamide]	500 to 1000 nM
O=C(Nc1nnc(OCc2ccc(Cl)cc2)s1)c1cncn1-c1ccccc1 [Example 4, N-(5-((4-chlorobenzyl)oxy)-1,3,4-thiadiazol-2-yl)-1-phenyl-1H-imidazole-5-carboxamide]	500 to 1000 nM
